Measurements reported in article PMC8466755, “GPCR Pharmacological Profiling of Aaptamine from the Philippine Sponge Stylissa sp. Extends Its Therapeutic Potential for Noncommunicable Diseases” (Molecules, 2021).
In brackets after ≈: the same amount, converted by molar mass. Entries after “also recorded” stand apart in the source; their conditions may differ.

Assays:
DRD2L = DRD2L (Homo sapiens, UniProt P14416); experiment: PathHunter β-arrestin assay, antagonist mode; format: cell-based
Method: (§3) The assay was performed by DiscoverX Corporation (Fremont, CA) using PathHunter β -arrestin enzyme fragment complementation (EFC) technology, in a similar way to that described elsewhere [35, 36]. The PathHunter cell lines were taken from freezer stocks according to standard procedures. A total of 20 µL of cells were seeded into white 384-well plates and incubated at 37 °C for the appropriate time prior to testing.
(§4) The assays were performed at 10-point concentrations using three-fold serial dilutions in duplicate. For all the assay formats, the final assay vehicle concentration was 1%.

HTR1E = HTR1E (Homo sapiens, UniProt P28566); experiment: PathHunter β-arrestin primary screen, antagonist mode (potentiator hit); format: cell-based; settings: control agonist at EC80, negative inhibition = potentiation, read-out: % Activation or inhibition, primary screen
Method: (§1) Aaptamine (20 µM) was profiled in gpcrMAX panel biosensor assays (in agonist and antagonist modes) against a panel of 168 GPCRs. The assay was performed by DiscoverX Corporation (Fremont, CA) using PathHunter β -arrestin enzyme fragment complementation (EFC) technology, in a similar way to that described elsewhere. The PathHunter cell lines were taken from freezer stocks according to standard procedures. A total of 20 µL of cells were seeded into white 384-well plates and incubated at 37 °C for the appropriate time prior to testing.
(§2) For antagonist determination, PathHunter cells were preincubated with aaptamine followed by the addition of an agonist. In this assay format, the standard agonist was added at an EC80 concentration. To the plate that contained the cells, 5 µL of the 5X sample was added and incubated for 30 min at 37 °C or room temperature. After the incubation period, 5 µL of the 6X EC80 agonist in an assay buffer was added to the cells and incubated for additional 90 or 180 min at 37 °C or room temperature.

CCR3 = target: T1, CCR3 (Homo sapiens, UniProt P51677); experiment: as above; format: cell-based; settings: control agonist at EC80, negative inhibition = potentiation, read-out: Primary Screen Maximal Response, % Inhibition or Activation
T1 sequence (P51677 1-355): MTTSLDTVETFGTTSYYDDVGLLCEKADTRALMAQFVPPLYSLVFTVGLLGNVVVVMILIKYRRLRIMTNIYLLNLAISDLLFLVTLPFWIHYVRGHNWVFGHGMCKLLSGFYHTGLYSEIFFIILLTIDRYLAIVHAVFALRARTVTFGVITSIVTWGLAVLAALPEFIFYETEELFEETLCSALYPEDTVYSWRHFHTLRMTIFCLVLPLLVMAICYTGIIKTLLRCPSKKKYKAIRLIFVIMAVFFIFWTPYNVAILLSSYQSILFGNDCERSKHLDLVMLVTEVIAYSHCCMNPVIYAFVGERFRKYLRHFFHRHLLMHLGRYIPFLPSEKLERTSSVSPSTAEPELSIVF
Method: as §1, §2

HeLa cells = tested on: HeLa cells; set-up: method as in PMID 20451377; settings: read-out: cytotoxicity against HeLa cells IC50; cited from earlier work
OPRK1 = OPRK1 (Homo sapiens, UniProt P41145); experiment: PathHunter β-arrestin assay, positive allosteric modulation (PAM) mode; format: cell-based; settings: dose-response, control agonist at EC20
Method: as §4
For PAM assays, the cells were preincubated with the sample followed by agonist induction at the EC20 concentration. To the cells, 5 µL of 5X sample was added and incubated for 30 min at 37 °C or room temperature. Following the incubation period, 5 µL of the 6X EC20 agonist prepared in an assay buffer was added to the cells and incubated for 90 or 180 min at 37 °C or room temperature.

[1] = target: delta opioid receptor (δ-OR, OPRD1); set-up: method as in PMID 27744679; settings: calcium mobilization pathway; read-out: EC50 agonist, delta opioid receptor; cited from earlier work
[2] = tested on: HCT116 colon cancer cells; experiment: MTT cell viability assay, HCT116; format: cell-based, human
Method: Aaptamine was tested against HCT116 colon cancer cells and cell viability was assessed after 48 h using an MTT (3-(4,5-dimethyl dimethylthiazol-2-yl)-2,5-diphenyltetrazolium bromide) assay. […] The results agreed with the findings of Kobayashi et al. that aaptamine at concentrations of 20–50 µM increased the expression of the cyclin-dependent kinase inhibitor p21, a protein known to act as a negative regulator of cell cycle progression, thus preventing cell proliferation. […] To alternatively explain the activity of aaptamine, we tested the compound for its ability to inhibit the chymotrypsin-like activity of a purified 20S proteasome from human erythrocytes. Proteasome inhibitors are validated anticancer agents. Aaptamine was able to inhibit the enzyme activity by 41% at 50 µM (Figure 2b). […] In our study, aaptamine had similar IC50 values for cancer cell growth inhibition and proteasome inhibition in vitro (~50 µM).
Human colon carcinoma cells (HCT116) were cultured in Dulbecco’s modified Eagle’s medium (DMEM, Invitrogen, MA, USA), supplemented with 10% fetal bovine serum (FBS, Sigma-Aldrich, MO, USA) and 1% antibiotic-antimycotic (Invitrogen, MA, USA) humidified at 37 °C with 5% CO2. […] Detection was performed using a SpectraMax M5 spectrometer (Molecular Devices, CA, USA) at 570 nm and cell viability was calculated and expressed relative to the vehicle control.

proteasome = tested on: proteasome; set-up: method as in PMID 20451377; settings: read-out: proteasome inhibitory activity IC50; cited from earlier work
[3] = tested on: Saccharomyces cerevisiae (BY4741); experiment: Yeast growth inhibition assay; format: cell-based; settings: up to 50 µM, 24 h
From the text: Each treatment was done in triplicate.

DRD4 = target: T2, DRD4 (Homo sapiens, UniProt P21917); experiment: PathHunter β-arrestin assay, antagonist mode; format: cell-based
T2 sequence (P21917 1-419): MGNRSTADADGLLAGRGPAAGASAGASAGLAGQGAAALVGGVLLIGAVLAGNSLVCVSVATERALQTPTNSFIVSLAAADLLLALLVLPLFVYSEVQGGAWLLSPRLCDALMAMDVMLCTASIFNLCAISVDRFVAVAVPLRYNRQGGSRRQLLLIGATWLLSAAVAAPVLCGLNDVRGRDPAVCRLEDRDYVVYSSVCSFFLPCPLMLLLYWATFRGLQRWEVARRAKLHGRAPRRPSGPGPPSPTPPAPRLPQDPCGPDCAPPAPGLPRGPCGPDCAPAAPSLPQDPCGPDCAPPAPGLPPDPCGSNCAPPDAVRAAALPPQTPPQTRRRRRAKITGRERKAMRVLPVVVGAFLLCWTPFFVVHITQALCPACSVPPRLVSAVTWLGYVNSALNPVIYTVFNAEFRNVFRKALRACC
Method: as §3, §4

CXCR7 = CXCR7 (Homo sapiens, UniProt P25106); experiment: PathHunter β-arrestin assay, agonist mode; format: cell-based
Method: For agonist determination, aaptamine was incubated with PathHunter cell lines to induce a response. To increase the concentration, intermediate dilution from 20 µM of aaptamine was performed to generate a 5X sample in an assay buffer. Then, 5 µL of 5X sample was added to the plate with PathHunter cells and incubated for 90 or 180 min at 37 °C or room temperature. The percentage activity of aaptamine was calculated following this formula: % activity = 100% × (mean RLU of test sample − mean RLU of vehicle control)/(mean MAX control ligand − mean RLU of vehicle control).
as §4

Candida tropicalis = tested on: Candida tropicalis; set-up: method as in doi:10.1016/S0040-4020(03)01069-X; settings: antifungal; cited from earlier work
ADRA2C = ADRA2C (Homo sapiens, UniProt P18825); experiment: PathHunter β-arrestin assay, antagonist mode; format: cell-based
Method: as §3, §4

[4] = dose-response analysis, read-out: Dose-Response Maximal Response, % Inhibition

CXCR7, sequence (P25106 whole entry): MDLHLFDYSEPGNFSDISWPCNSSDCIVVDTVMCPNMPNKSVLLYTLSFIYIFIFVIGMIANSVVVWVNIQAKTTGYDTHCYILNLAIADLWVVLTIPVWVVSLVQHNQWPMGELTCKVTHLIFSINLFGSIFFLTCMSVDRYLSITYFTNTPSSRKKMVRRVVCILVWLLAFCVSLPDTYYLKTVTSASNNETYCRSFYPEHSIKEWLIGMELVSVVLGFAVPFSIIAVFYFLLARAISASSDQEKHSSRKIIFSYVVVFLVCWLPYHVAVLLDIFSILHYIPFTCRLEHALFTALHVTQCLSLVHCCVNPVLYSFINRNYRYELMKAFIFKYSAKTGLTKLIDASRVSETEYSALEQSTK
OPRK1, sequence (P41145 whole entry): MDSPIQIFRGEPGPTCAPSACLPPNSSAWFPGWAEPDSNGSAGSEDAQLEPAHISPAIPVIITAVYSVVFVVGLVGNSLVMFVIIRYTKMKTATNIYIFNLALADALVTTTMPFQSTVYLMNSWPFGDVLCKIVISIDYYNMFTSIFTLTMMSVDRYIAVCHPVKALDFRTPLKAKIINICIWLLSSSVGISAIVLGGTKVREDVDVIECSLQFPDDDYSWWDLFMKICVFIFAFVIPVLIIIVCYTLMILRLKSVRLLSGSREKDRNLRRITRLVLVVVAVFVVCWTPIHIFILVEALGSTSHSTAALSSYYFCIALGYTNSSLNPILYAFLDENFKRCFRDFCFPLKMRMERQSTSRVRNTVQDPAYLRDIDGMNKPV
DRD2L, sequence (P14416 whole entry): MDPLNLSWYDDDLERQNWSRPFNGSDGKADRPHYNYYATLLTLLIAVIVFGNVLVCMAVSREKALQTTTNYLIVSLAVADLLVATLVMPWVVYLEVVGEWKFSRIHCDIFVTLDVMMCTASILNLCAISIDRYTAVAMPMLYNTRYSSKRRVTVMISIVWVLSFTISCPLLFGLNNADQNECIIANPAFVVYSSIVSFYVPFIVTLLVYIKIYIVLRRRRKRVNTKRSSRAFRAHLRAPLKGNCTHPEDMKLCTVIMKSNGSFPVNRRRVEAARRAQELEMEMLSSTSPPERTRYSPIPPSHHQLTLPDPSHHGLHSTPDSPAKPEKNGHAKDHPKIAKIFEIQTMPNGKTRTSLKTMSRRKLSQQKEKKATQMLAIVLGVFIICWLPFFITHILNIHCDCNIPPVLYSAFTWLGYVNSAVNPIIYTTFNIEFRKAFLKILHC
ADRA2C, sequence (P18825 whole entry): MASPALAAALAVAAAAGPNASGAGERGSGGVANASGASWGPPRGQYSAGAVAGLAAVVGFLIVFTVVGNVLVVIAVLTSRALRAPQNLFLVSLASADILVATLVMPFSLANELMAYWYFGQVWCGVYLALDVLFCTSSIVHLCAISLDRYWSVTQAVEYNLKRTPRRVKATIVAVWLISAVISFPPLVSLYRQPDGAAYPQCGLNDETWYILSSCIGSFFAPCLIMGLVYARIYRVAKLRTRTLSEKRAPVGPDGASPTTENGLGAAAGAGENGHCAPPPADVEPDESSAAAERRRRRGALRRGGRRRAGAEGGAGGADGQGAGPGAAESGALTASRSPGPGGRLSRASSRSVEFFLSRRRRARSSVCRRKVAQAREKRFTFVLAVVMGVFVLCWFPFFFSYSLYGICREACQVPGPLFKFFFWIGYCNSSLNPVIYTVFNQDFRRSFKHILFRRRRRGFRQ
HTR1E, sequence (P28566 whole entry, the tested form may be a part): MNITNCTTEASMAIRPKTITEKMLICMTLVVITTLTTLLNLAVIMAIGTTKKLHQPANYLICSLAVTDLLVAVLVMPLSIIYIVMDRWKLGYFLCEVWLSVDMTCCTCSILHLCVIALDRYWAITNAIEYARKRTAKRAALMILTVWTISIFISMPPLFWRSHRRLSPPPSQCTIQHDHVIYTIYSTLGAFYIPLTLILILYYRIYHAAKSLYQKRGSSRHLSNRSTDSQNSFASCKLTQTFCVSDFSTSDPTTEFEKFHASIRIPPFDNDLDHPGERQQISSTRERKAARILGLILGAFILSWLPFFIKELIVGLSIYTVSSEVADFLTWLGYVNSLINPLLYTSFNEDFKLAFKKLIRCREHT

For `COc1cc2ccnc3c2c(c1OC)NC=C3` [aaptamine], the Emax (DRD2L; [4]) was 73.7%, the IC50 (DRD2L; dose-response, antagonist mode) was 38.7 µM and the inhibition at 20 µM (HTR1E) was -47%. The Emax at 20 µM (CCR3) was 49%, the IC50 (HeLa cells) was 66 µM and the “validation of potentiator hit under PAM conditions” value (OPRK1) was “false positives; also recorded: did not validate”. For the same compound, the EC50 [1] was 5.1 µM, the “reduction of viability of HCT116” value ([2]; 50 µM (highest concentration tested), 48 h, MTT) was 50% and the IC50 ([2]; Homo sapiens, HCT-116, HCT116, 48 h, read-out: IC50 cancer cell growth inhibition) was ~50 µM. For the same compound, the IC50 (proteasome) was 19 µM, the growth inhibitory activity [3] was “did not observe growth inhibitory activity” and the Emax (DRD4; [4]) was 94.5%. The IC50 (DRD4; dose-response, antagonist mode) was 6.9 µM, the “selectivity for DRD4 among the dopamine receptors” value (DRD4; versus DRD2S and DRD2L, from IC50 values) was 3.7- to 5.6 fold and the “Dose-Response Maximal Response, % Activation” value (CXCR7; dose-response analysis) was 122.57%. The Emax (CXCR7; dose-response analysis, read-out: Dose-Response Maximal Response, % Activation) was 123%, the EC50 (CXCR7; dose-response, agonist mode) was 6.2 µM and the MIC (Candida tropicalis) was 110 µM (≈ 25.1 µg/mL). It also gave an Emax (ADRA2C; [4]) of 104% and an IC50 (ADRA2C; dose-response, antagonist mode) of 11.9 µM.
